Measurements as given in PubChem BioAssay AID1949 (Southern Research Institute, 2009).
Values after ≈ are worked out from the molar mass of the structure shown. Results filed as inconclusive are left out. Active and inactive are the calls of the source. How the calls were made is not given here.

Each compound was assayed on M. tuberculosis H37Rv growth inhibition (assay: Mycobacterium tuberculosis H37Rv growth inhibition, cell based, confirmatory dose response (AID 1949);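 further: bacteria grown 7 days with compound before Alamar blue readout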).

Row | SMILES | IC50
1 | COc1ccccc1/C=C/c1nn2c(-c3ccc(C)cc3)nnc2s1 | 45.6 µg/mL (≈ 131 µM)
2 | COc1ccc2nc(/C(C#N)=C\c3ccc(SC)cc3)[nH]c2c1 | 7.56 µg/mL (≈ 23.5 µM)
3 | N#C/C(=C\C=C\c1ccco1)c1nc2c(s1)CCCC2 | 9.33 µg/mL (≈ 33 µM)
4 | CCC(C)Oc1ccc(C(=O)NC(=S)Nc2ccc3c(c2)COC3=O)cc1 (configuration not stated) | 0.55 µg/mL (≈ 1.43 µM)
5 | Cc1cccc(NC(=S)NCCN2CCN(c3ccc(F)c(Cl)c3)CC2)c1C | 2.79 µg/mL (≈ 6.63 µM)
6 | CC(CCc1ccccc1)Nc1cc(N2CCNCC2)ccc1[N+](=O)[O-] (configuration not stated) | > 50 µg/mL (inactive)
7 | Cc1ccc(/C=C/[N+](=O)[O-])cc1Br | 239 µg/mL (≈ 987 µM)
8 | COC(=O)COc1ccc2c(=O)c(Oc3ccccc3F)c(C)oc2c1C | 6.55 µg/mL (≈ 17.6 µM)
9 | COC(=O)c1c(C)oc2ccc(OC(=O)c3ccc([N+](=O)[O-])cc3)cc12 | > 50 µg/mL (inactive)
10 | COc1ccc(N2CCN(CC(O)COc3ccc(C)cc3C(C)(C)C)CC2)cc1 (configuration not stated) | 4.09 µg/mL (≈ 9.91 µM)
11 | CCOc1ccc(C(=O)Nc2ccc(N3CCN(C(=O)c4cccs4)CC3)c(Cl)c2)cc1Br | 0.53 µg/mL (≈ 0.966 µM)
12 | COC(=O)COc1cc2oc(=O)cc(-c3ccccc3)c2cc1Cl | 29 µg/mL (≈ 84.1 µM)
13 | Cc1oc2ccc(OC(=O)c3ccc(F)cc3)cc2c1C(=O)OC(C)C | 2.4 µg/mL (≈ 6.73 µM)
14 | COc1ccccc1C(=O)NNC(=S)NC(=O)C1CCCCC1 | 3.02 µg/mL (≈ 9 µM)
15 | CCOC(=O)c1cc(-c2ccc(/C=C/[N+](=O)[O-])o2)ccc1Cl | > 50 µg/mL (inactive)
16 | COc1ccc2c(c1)CC1=C2CCC2(C)C1=CCC2OC(C)=O (configuration not stated) | 21.6 µg/mL (≈ 69.8 µM)
17 | CCn1c2ccccc2c2nnc(SCCCn3c(=O)[nH]c4ccccc43)nc21 | > 50 µg/mL (inactive)
18 | Cc1nc2c(o1)C1(C(=O)N2C)C(C#N)=C(N)N(c2ccccc2)c2ccccc21 (configuration not stated) | 6.25 µg/mL (≈ 16.3 µM)
19 | O=C(Nc1ccc(Cl)cc1C(F)(F)F)c1ccc([N+](=O)[O-])o1 | 2.42 µg/mL (≈ 7.23 µM)

Row | SMILES | IC50
20 | CC(C)Cc1nc2sc3c(c2c(=O)o1)CCCCC3 | 5.69 µg/mL (≈ 20.5 µM)
21 | N#Cc1c(SCC(=O)OCc2ccccc2)nsc1SCC(=O)OCc1ccccc1 | 8.73 µg/mL (≈ 18.6 µM)
22 | O=C(Nc1cccc2cccnc12)c1ccc([N+](=O)[O-])o1 | 8.91 µg/mL (≈ 31.5 µM)
23 | COc1cccc(OCC(=O)c2ccc(Br)cc2)c1 | 0.37 µg/mL (≈ 1.15 µM)
24 | COc1cc(Br)cc2cc(C(=O)Nc3cc(C(F)(F)F)ccc3Cl)c(=O)oc12 | > 50 µg/mL (inactive)
25 | Cc1ccc(-c2nc(C#N)c(NCCCn3ccnc3)o2)cc1 | > 50 µg/mL (inactive)
26 | O=C(CSc1ccc(Cl)cc1)Nc1ccc(Cl)c(C(F)(F)F)c1 | 3.18 µg/mL (≈ 8.36 µM)
27 | O=C(OCc1c(F)cccc1Cl)c1cc2ccccc2oc1=O | > 50 µg/mL (inactive)
28 | COC(=O)c1cc(NC(=O)Nc2cccc(Cl)c2)cc(C(=O)OC)c1 | 0.18 µg/mL (≈ 0.496 µM)
29 | CC1(C)COC(/C=C/c2cccc([N+](=O)[O-])c2)=N1 | 11.6 µg/mL (≈ 47.1 µM)
30 | CCOC(=O)c1c(-c2ccccc2)oc2ccc(OC(=O)c3cccs3)cc12 | > 50 µg/mL (inactive)
31 | O=C(CNS(=O)(=O)c1ccc([N+](=O)[O-])cc1)OCc1c(F)cccc1Cl | 17.3 µg/mL (≈ 43 µM)
32 | Cc1ccc(N2C(=O)c3cccc4c(N5CCN(C)CC5)ccc(c34)C2=O)c2cccnc12 | 49.3 µg/mL (≈ 113 µM)
33 | O=C(CCNc1cccc(Br)c1)c1cccs1 | 5.43 µg/mL (≈ 17.5 µM)
34 | O=C(NC12CC3CC(CC(C3)C1)C2)N1CCN(c2cccc(C(F)(F)F)c2)CC1 | 0.96 µg/mL (≈ 2.36 µM)
35 | COc1ccc(CC(=O)Nc2ccc(-c3nc4ccccc4c(=O)o3)cc2)cc1 | 15.1 µg/mL (≈ 39 µM)
36 | CN1CCN(c2ccc(NC(=O)c3ccc(-c4cccc([N+](=O)[O-])c4)o3)cc2)CC1 | 8.66 µg/mL (≈ 21.3 µM)
37 | Cc1nc(N2CCN(Cc3ccc4c(c3)OCO4)CC2)nc2c1C(=O)CC(c1ccco1)C2 (configuration not stated) | 5.06 µg/mL (≈ 11.3 µM)
38 | COc1cccc(N2C(=O)c3cccc4cc([N+](=O)[O-])cc(c34)C2=O)c1 | 11 µg/mL (≈ 31.7 µM)

Row | SMILES | IC50
39 | Cc1cc(Sc2ncnc(N)c2[N+](=O)[O-])ncn1 | 1.7 µg/mL (≈ 6.43 µM)
40 | Cc1cc(NC(=O)CSc2nnc(-c3ccccc3Cl)o2)no1 | 2.43 µg/mL (≈ 6.93 µM)
41 | O=C(Nc1ccn(Cc2ccc(Cl)cc2)n1)c1ccc2c(c1)OCO2 | 2.43 µg/mL (≈ 6.83 µM)
42 | CCOc1cc(CNC(C)C23CC4CC(CC(C4)C2)C3)cc(Cl)c1OCC(=O)NC(C)(C)C (configuration not stated) | 3.06 µg/mL (≈ 6.41 µM)
43 | Cc1cc(Br)c2[nH]c(O)c(N=NC(=O)COc3ccc(C(C)(C)C)cc3C)c2c1 | 27 µg/mL (≈ 59 µM)
44 | O=C(CC12CC3CC(CC(C3)C1)C2)NC(=S)Nc1ccc(-c2nc3ccccc3[nH]2)cc1 | 1.46 µg/mL (≈ 3.28 µM)
45 | Cc1ccc(NC(=O)COc2cccc(C=O)c2)cc1Cl | 5.9 µg/mL (≈ 19.4 µM)
46 | Cc1cccc(COc2ccc(/C=C/[N+](=O)[O-])cc2)c1 | 21.4 µg/mL (≈ 79.5 µM)
47 | O=S(=O)(Nc1cc(Br)c(O)c2ccccc12)c1ccc(F)cc1 | 3.06 µg/mL (≈ 7.72 µM)
48 | CCOC(=O)COc1ccc(OCc2ccccc2)cc1 | 1.21 µg/mL (≈ 4.23 µM)
49 | CSc1nsc(SCC(=O)c2ccccc2)n1 | 4.45 µg/mL (≈ 15.8 µM)
50 | O=C(NC(=S)N1CCCC1)c1ccc(-c2ccccc2)cc1 | 1.43 µg/mL (≈ 4.61 µM)
51 | CCCc1cc(C(N)=O)c(NC(=O)c2ccoc2C)s1 | 4.4 µg/mL (≈ 15 µM)
52 | O=C(CC(O)(C(F)(F)F)C(F)(F)F)Nc1cccc(C(F)(F)F)c1 | 3.59 µg/mL (≈ 9.72 µM)
53 | CCOC(=O)c1c(NC(=S)NC2CCN(Cc3ccccc3)CC2)sc(C)c1-c1ccccc1 | 1.38 µg/mL (≈ 2.8 µM)
54 | Cc1ccc(OCC(=O)c2ccccc2)cc1C | 4.92 µg/mL (≈ 20.5 µM)
55 | CCCCOC(=O)COc1ccc2c(=O)c(Oc3ccc(OCC)cc3)c(C)oc2c1 | 1.59 µg/mL (≈ 3.73 µM)
56 | CC(=O)c1c(C)n([O-])c2cc(Cl)c(Cl)cc2[n+]1=O | 5.48 µg/mL (≈ 19.1 µM)
57 | CCn1c(NCc2c(O)ccc3ccccc23)nc2ccccc21 | 2.05 µg/mL (≈ 6.46 µM)
